Assay [1] addresses T1, Histone deacetylase 2 (Homo sapiens, UniProt Q92769). As to the kind of experiment: Inhibition of HDAC2 (unknown origin) assessed as residual activity at 3.70 x 10^-7M (reference value: 99.81%). As to conditions: dose 3.7 10^-7M.
The target of assay [2] is T2, Histone deacetylase 8 (Homo sapiens) (UniProt Q9BY41).
T2 sequence (whole entry): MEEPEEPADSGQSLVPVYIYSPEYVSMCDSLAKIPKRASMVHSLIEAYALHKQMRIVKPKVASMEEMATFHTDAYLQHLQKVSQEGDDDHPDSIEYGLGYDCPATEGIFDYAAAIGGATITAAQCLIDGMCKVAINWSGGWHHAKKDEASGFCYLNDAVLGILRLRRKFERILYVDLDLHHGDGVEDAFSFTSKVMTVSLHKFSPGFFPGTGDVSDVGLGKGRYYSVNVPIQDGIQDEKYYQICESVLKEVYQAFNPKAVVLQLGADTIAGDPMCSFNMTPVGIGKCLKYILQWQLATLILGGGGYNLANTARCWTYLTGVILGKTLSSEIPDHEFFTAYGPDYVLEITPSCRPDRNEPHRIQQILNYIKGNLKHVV
The assay can be described thus: Inhibition of HDAC8 (unknown origin) assessed as residual activity at 3.70 x 10^-7M (reference value: 100%). The note with it: dose 3.7 10^-7M.

Assay [3] has as its target Histone deacetylase 4 (Homo sapiens) (UniProt P56524). The assay can be described thus: Inhibition of HDAC4 (unknown origin) assessed as residual activity at 1.37 x 10^-8M (reference value: 98.90%). The note with it: dose 1.37 10^-8M.
Assay [4] deals with Histone deacetylase 9 (Homo sapiens) (UniProt Q9UKV0). As to the kind of experiment: Inhibition of HDAC9 (unknown origin) assessed as residual activity at 5.08 x 10^-10M (reference value: 97.55%). The note with it: dose 5.08 10^-10M.
In assay [5] the target is T2, Histone deacetylase 8 (Homo sapiens). The assay can be described thus: Inhibition of HDAC8 (unknown origin) assessed as residual activity at 1.23 x 10^-7M (reference value: 100%). The note with it: dose 1.23 10^-7M.
Assay [6] deals with HL-60. The assay can be described thus: Induction of cell cycle arrest in G0/G1 phase in human HL-60 cells assessed as downregulation of AKT protein expression at 0.5 to 1 times IC50 by Western blot analysis. In kind it is functional, cell-based. (In general: Immunoblotting shows a protein as a band on a membrane.)
The subject of assay [7] is HL-60. As to the kind of experiment: Downregulation of PARP-2 protein expression in human HL-60 cells by Western blot analysis. In kind it is functional, cell-based.
For assay [8], the system named is HL-60. As to the kind of experiment: Upregulation of gammaH2AX protein expression in human HL-60 cells at 0.5 to 1 times IC50 by Western blot analysis. In kind it is functional, cell-based.
Assay [9] addresses T1, Histone deacetylase 2. As to the kind of experiment: Inhibition of HDAC2 (unknown origin) assessed as residual activity at 1.37 x 10^-8M (reference value: 99.81%). The note with it: dose 1.37 10^-8M.
The target of assay [10] is Histone deacetylase 4 (Homo sapiens) (UniProt P56524). As to the kind of experiment: Inhibition of HDAC4 (unknown origin) assessed as residual activity at 1.1 x 10^-6M (reference value: 98.90%). As to conditions: dose 1.1 10^-6M.
The target of assay [11] is T3, Histone deacetylase 1 (Homo sapiens, UniProt Q13547). The assay can be described thus: Inhibition of HDAC1 (unknown origin) using p53 residues 379 to 382 [RHKK(Ac)] as fluorogenic substrate assessed as residual activity at 1.11 x 10^-6M (reference value: 98.06%). The note with it: dose 1.11 10^-6M.
Assay [12] deals with HL-60. The assay can be described thus: Induction of autophagy in human HL-60 cells assessed as conversion of LC3-I to LC3-II at 0.5 to 1 times IC50 by Western blot analysis. In kind it is functional, cell-based.
For assay [13], the target named is T1, Histone deacetylase 2. The assay can be described thus: Inhibition of HDAC2 (unknown origin) assessed as residual activity at 1.23 x 10^-7M (reference value: 99.81%). The note with it: dose 1.23 10^-7M.
For assay [14], the target named is T3, Histone deacetylase 1. As to the kind of experiment: Inhibition of HDAC1 (unknown origin) using p53 residues 379 to 382 [RHKK(Ac)] as fluorogenic substrate assessed as residual activity at 5.08 x 10^-10M (reference value: 98.06%). The note with it: dose 5.08 10^-10M.
For assay [15], the target named is T4, Histone deacetylase 7 (Homo sapiens) (UniProt Q8WUI4).
T4 sequence (whole entry): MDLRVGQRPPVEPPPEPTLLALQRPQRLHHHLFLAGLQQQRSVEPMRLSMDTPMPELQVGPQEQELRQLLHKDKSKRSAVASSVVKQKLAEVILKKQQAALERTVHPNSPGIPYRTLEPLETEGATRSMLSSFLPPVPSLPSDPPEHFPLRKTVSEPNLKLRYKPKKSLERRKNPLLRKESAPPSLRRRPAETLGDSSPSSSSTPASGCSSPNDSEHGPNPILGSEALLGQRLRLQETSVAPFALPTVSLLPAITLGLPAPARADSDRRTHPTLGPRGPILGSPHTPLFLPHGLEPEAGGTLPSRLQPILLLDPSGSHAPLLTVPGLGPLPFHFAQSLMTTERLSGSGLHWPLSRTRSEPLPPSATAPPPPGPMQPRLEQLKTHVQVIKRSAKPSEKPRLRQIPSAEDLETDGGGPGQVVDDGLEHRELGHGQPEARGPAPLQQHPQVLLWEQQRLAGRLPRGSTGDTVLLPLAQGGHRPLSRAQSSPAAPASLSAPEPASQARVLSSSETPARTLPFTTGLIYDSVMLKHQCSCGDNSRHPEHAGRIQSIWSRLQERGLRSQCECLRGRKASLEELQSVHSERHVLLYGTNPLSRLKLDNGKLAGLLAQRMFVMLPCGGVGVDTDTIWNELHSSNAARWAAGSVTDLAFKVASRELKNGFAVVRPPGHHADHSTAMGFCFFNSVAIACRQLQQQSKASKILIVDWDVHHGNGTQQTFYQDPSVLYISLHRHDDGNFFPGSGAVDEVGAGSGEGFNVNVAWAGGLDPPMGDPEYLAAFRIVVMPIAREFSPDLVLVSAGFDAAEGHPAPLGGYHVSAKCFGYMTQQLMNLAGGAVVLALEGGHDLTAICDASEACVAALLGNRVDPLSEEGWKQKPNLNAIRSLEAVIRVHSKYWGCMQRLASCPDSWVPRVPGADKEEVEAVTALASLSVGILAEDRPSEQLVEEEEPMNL
As to the kind of experiment: Inhibition of HDAC7 (unknown origin) assessed as residual activity at 3.33 x 10^-6M (reference value: 102.66%). The note with it: dose 3.33 10^-6M.

Calls of active or inactive are those of the source. No cut-off for these calls is given here.

T1 sequence (Q92769 whole entry): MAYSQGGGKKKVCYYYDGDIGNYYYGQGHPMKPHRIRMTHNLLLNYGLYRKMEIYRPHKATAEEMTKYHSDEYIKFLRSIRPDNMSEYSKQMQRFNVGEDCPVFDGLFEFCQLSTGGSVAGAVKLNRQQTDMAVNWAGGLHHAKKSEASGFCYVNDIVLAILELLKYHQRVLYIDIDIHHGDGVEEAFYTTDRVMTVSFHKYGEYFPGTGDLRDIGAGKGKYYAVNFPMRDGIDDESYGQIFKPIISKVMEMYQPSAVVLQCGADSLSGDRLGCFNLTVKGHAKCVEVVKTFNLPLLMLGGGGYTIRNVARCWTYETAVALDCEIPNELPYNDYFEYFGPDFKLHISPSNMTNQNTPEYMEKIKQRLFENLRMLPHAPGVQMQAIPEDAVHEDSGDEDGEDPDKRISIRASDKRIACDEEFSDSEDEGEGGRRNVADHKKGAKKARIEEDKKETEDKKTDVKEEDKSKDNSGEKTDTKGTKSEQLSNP
T3 sequence (Q13547 whole entry, the tested form may be a part): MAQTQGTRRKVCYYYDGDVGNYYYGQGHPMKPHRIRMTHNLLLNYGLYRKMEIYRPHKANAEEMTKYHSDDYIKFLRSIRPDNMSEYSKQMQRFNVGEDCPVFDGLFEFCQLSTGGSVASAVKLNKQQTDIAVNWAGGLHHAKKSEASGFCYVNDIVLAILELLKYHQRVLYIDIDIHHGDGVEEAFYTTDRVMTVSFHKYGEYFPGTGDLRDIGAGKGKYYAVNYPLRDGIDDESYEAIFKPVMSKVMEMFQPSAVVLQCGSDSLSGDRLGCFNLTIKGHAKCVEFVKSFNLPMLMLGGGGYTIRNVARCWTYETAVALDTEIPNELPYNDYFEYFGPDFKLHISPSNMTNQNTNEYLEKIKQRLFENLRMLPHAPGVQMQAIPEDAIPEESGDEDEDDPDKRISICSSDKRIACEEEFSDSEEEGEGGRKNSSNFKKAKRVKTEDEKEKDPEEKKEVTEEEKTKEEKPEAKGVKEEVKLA
Histone deacetylase 4 (Homo sapiens), sequence (P56524 whole entry, the tested form may be a part): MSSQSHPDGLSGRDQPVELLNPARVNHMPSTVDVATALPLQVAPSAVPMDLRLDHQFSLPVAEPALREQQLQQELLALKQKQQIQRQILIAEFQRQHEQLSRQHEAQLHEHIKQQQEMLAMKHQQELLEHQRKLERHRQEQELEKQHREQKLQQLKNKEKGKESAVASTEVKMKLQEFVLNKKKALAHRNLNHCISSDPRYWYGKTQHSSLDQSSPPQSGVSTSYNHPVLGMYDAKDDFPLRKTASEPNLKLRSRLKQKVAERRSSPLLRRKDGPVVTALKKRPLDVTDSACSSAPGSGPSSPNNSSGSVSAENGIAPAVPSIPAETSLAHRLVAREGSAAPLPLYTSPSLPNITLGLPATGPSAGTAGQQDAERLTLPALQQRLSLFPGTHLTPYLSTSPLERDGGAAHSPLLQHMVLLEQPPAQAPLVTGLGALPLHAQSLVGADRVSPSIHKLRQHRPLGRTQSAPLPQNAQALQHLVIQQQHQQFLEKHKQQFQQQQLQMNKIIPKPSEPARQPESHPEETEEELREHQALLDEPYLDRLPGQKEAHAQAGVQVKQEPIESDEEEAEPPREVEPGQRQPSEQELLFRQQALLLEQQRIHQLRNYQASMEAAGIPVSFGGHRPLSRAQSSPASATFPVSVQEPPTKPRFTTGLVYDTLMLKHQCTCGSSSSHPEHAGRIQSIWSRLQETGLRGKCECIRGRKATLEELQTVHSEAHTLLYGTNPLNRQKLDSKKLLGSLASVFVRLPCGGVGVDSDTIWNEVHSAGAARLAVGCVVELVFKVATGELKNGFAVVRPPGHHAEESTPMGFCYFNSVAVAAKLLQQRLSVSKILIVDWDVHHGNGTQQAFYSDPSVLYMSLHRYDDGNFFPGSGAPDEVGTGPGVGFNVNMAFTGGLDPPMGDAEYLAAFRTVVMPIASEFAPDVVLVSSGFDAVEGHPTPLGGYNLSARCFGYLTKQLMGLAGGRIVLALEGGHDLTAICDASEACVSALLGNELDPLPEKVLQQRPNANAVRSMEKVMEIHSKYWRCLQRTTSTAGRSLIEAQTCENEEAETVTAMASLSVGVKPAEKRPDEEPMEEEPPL
Histone deacetylase 9 (Homo sapiens), sequence (Q9UKV0 whole entry): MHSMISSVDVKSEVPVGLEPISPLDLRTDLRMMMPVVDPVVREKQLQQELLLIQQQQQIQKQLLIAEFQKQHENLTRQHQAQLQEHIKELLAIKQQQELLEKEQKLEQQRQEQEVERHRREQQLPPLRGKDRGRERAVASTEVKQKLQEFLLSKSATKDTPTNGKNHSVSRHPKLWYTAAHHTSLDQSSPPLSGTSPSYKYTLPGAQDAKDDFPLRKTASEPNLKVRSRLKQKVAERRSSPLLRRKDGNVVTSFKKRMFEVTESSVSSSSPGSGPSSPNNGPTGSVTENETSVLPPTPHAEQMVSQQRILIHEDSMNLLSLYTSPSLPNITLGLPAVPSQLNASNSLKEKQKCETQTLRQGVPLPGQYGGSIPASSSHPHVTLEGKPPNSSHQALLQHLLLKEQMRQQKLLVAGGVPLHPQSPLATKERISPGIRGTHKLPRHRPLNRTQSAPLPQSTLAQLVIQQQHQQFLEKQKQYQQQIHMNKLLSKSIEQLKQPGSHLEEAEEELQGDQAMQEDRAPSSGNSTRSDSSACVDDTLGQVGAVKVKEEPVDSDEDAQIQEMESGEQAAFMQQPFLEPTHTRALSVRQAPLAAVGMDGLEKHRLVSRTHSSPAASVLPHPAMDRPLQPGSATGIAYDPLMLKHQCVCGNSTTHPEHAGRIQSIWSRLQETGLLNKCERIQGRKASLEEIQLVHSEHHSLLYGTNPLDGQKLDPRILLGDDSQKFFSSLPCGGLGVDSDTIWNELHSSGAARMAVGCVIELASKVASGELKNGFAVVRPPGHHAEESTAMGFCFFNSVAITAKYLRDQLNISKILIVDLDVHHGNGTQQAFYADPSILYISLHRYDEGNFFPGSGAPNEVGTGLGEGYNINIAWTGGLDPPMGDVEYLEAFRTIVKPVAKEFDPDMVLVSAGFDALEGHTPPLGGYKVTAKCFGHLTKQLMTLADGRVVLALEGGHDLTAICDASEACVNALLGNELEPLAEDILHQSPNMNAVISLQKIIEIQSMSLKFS

In the case of `NC(=O)c1cccc2[nH]c(-c3ccc(NCc4ccc(C(=O)Nc5ccccc5N)cc4)cc3)nc12`, the Activity on Histone deacetylase 2 [1] worked out at 33.5%; in assay [2], 99.5%; in assay [3], 96.3%; in assay [4], 93.7%; in assay [5], 104%; at Histone deacetylase 2 [9] it was 86.2%. Further, the Activity in assay [10] was 76.5%; at Histone deacetylase 1 [11], 11%; in the assay with HL-60 [12], “Dose-Dependent Effect”; at Histone deacetylase 2 [13] it was 56.5%; on Histone deacetylase 1 [14], 93.5%; in [15] it was 95.6%. Further, the outcome in the assay with HL-60 [6], in the assay on HL-60 [7] and in the assay with HL-60 [8] was Active.

For the origin of these results see ChEMBL document CHEMBL5550160, “Leveraging a rationally designed veliparib-based anilide eliciting anti-leukemic effects for the design of pH-responsive polymer nanoformulation” (Eur J Med Chem, 2024).
